Test results: publication PMC7763008, “Antimicrobial, Anticancer and Multidrug-Resistant Reversing Activity of Novel Oxygen-, Sulfur- and Selenoflavones and Bioisosteric Analogues” (Pharmaceuticals, 2020)
Read-outs that look alike come from different tables or passages of the source.

Columns and labels:
[1] = tested on: Colo 205 human colonic adenocarcinoma cell line (doxorubicin-sensitive); assay: MTT cytotoxic activity assay, Colo 205; format: cell-based; conditions: COLO 205, read-out: Cytotoxic activity, A—Colo 205 IC50
Source text: (§1) Three cell lines have been used in this work: (i), the doxorubicin-sensitive Colo 205 (ATCC-CCL-222) human colonic adenocarcinoma cell line; (ii) the multidrug resistant Colo 320/MDR-LRP expressing P-gp (MDR1)-LRP (ATCC-CCL-220.1) human colonic adenocarcinoma cell line; and the MRC-5 human embryonal lung fibroblast cell line (ATCC CCL-171). The three cell lines were purchased from LGC Promochem, Teddington, UK.
(§2) Colo 205 (ATCC-CCL-222) and Colo 320/MDR-LRP expressing P-gp (MDR1)-LRP (ATCC-CCL-220.1 human colon adenocarcinoma cell lines. As previously described, the cells were cultured in RPMI 1640 medium supplemented with 10% heat-inactivated fetal bovine serum, 2 mM L-glutamine, 1 mM Na-pyruvate, and 100 mM Hepes. The cell lines were incubated at 37 °C, in a 5% CO2, 95% air atmosphere. The semi-adherent human colon cancer cells were detached with Trypsin-Versene (EDTA) solution for 5 min at 37 °C [20].
(§3) The influence of synthetic flavonoid derivatives (compounds 1–6) on the doxorubicin-sensitive Colo 205, multidrug resistant Colo 320/MDR-LRP adenocarcinoma and MRC-5 cell lines was evaluated employing the MTT metabolic activity assay, using a procedure described in Supplementary Materials and in previous works, and applying the appropriate formulas to calculate the cell growth inhibition and the selectivity index (SI), as well as the criterion to determine whether a compound is strongly or moderately selective.
(§4) Briefly, the serial dilutions in culture medium required for the MTT metabolic assay (ranging from 100 to 0.195 µM) were freshly prepared before the assay. The stock solutions (10 mM) of the tested compounds were prepared in pure DMSO and the final concentration of DMSO was adjusted to less than 1% threshold in the biological experiments. The concentration-dependent growth inhibition was evaluated in 96-well flat-bottomed microtiter plates. Doxorubicin (DOXO) was employed as a positive control whilst culture medium containing cells was used as a negative control.
(§5) In the case of the colonic adenocarcinoma cells, two-fold serial dilutions of the flavone compounds were prepared in 100 μL of RPMI 1640, horizontally. Furthermore, the semi-adherent colonic adenocarcinoma cells were treated with Trypsin-Versene (EDTA) solution. Then, cells were adjusted to a density of 5 × 10^3/well for antiproliferative assay and 1 × 10^4/well for the estimation of cytotoxic activity in 100 µL of medium. The cells were added to each well except to the medium control wells. The culture plates were subsequently incubated at 37 °C for 24 h and 72 h, respectively; 20 μL of MTT solution (thiazolyl blue tetrazolium bromide, Sigma) were added to each well from MTT stock solution (5 mg /mL) after incubation. After 4 h of incubation at 37 °C, 100 μL of sodium dodecyl sulfate (SDS) solution (10% in 0.01 M HCl) was added to each well and all plates were incubated at 37 °C overnight. Finally, cell growth was determined by measuring the optical density (OD) at 540 nm (ref. 630 nm) with Multiscan EX ELISA reader (Thermo Labsystems, Cheshire, WA, USA).
(§6) The inhibition of the cell growth was determined according to the formula mentioned elsewhere. Finally, the cell viability and IC50 values for every tested compound and doxorubicin were calculated using GraphPad Prism, version 5.03.

Escherichia coli = assay: Antibacterial growth assay, E. coli; format: cell-based; conditions: highest concentration (200 µM; not restated for E. coli)
Description: (§7) The antimicrobial activities of the compounds were determined according to the protocol described in the literature, employing a Universal Microplate Reader, EL800, Biotech Instruments, Inc. Highland Park, Winooski, VT, USA [23, 24, 25].
(§8) In short words, compounds were dissolved in DMSO and later diluted in the adequate growth media to be evaluated at the final concentrations of 50, 100, 150, and 200 µM. Nutrient Luria Bertani (LB) broth, bacterial basic media, Sabouraud Dextrose (SD), and Yeast Peptone Dextrose (YPD) were exploited as media for Escherichia coli, Staphylococcus carnosus, Candida albicans, and Saccharomyces cerevisiae, respectively. In all cases, the final concentration of DMSO was 1% or less. A mixture of penicillin, streptomycin, and amphotericin B (4 U, 0.4 µg/mL and 10 µg/mL, respectively) was employed as positive control for S. carnosus and E. coli, while ketoconazole was utilized as the positive control for C. albicans and S. cerevisiae. The untreated culture in medium was employed as the negative control for each organism; 1% DMSO stock solution was used as a solvent control. All experiments were performed in triplicates and on three independent occasions (n = 9).

[2] = target: P-gp (ABCB1) efflux pump in MDR Colo 320 colon adenocarcinoma cells (Homo sapiens, UniProt P08183); assay: Rhodamine 123 accumulation assay (MDR efflux pump inhibition, flow cytometry); conditions: for FAR (fluorescence activity ratio): MDR Colo 320 vs sensitive Colo 205; for FAR Quotient (%): FAR of compound / FAR of verapamil (20 μM) x 100; for Increase in efflux pump inhibitory activity of naphthyl vs corresponding phenyl derivative: naphthyl-substituted vs phenyl-substituted chalcogen flavone, 20 µM data
Description: The P-glycoprotein (P-gp) inhibitory properties of the tested flavone derivatives were evaluated in a rhodamine R123 accumulation assay in two different concentrations.
This is a fluorescence-based detection assay which uses verapamil as a reference inhibitor of P-gp efflux pump. […] Compounds (1 μL and 10 μL from a stock solution of 1 mM) were added to the medium to achieve solutions with final concentrations of 2 μM and 20 μM respectively, followed by incubation of the sample for 10 min at room temperature. […] The fluorescence intensity of the cell population was measured with a Partec CyFlow flow cytometer (Partec, Munster, Germany). Verapamil (20 μM) was employed as a positive control. […] The fluorescence activity ratio (FAR) was calculated employing the following equation [20, 26]:FAR = (MDRtreated/MDRcontrol)/(sensitivetreated/ sensitivecontrol)(1)
FAR Quotient % was calculated as follows:Quotient = (FARcompound/FARverapamil) × 100(2)

[3] = tested on: Colo 205 human colonic adenocarcinoma cell line (doxorubicin-sensitive); assay: MTT antiproliferative activity assay, Colo 205; format: cell-based; conditions: 5 × 10^3 cells/well
Source text: as §1, §2, §3, §4, §5, §6

[4] = tested on: Colo 320/MDR-LRP human colonic adenocarcinoma cell line (multidrug resistant); assay: MTT antiproliferative activity assay, Colo 320; format: cell-based; conditions: 5 × 10^3 cells/well, read-out: Antiproliferative activity, B—Colo 320 IC50
Source text: as §1, §2, §3, §4, §5, §6

[5] = MTT cytotoxic activity assay, MRC-5; format: cell-based; conditions: human
Source text: as §1
MRC-5 human embryonal lung fibroblast cell line (ATCC CCL-171). As previously described, the cells were cultured in Eagle’s Minimal Essential Medium (EMEM, containing 4.5 g/L of glucose) supplemented with a non-essential amino acid mixture, a selection of vitamins and 10% heat-inactivated fetal bovine serum. The cell lines were incubated at 37 °C, in a 5% CO2, 95% air atmosphere.
as §3, §4
Prior to the experiments, the adherent human embryonal lung fibroblasts (MRC-5) were cultured in flat-bottomed microtiter 96-well plates in an EMEM media supplemented with 10% heat-inactivated fetal bovine serum. Cells were seeded at a density of 10.000 cells per well for 24 h before the beginning of the experiment. The cells were cultured at 37 °C in the humidified cell incubator with the 5% of CO2 and 95% air environment. The medium was subsequently removed from the plates containing the cells, and the dilutions of tested compounds, previously made in a separate micro-titration plate, were added to the cells (at final volume equal to 200 μL).
as §6

[6] = tested on: Colo 320/MDR-LRP human colonic adenocarcinoma cell line (multidrug resistant); assay: MTT cytotoxic activity assay, Colo 320; format: cell-based
Source text: as §1, §2, §3, §4, §5, §6

S. feltiae = assay: Nematicidal activity assay; format: in vivo; conditions: Steinernema feltiae; for viability at 200 µM: read-out: Viability of the nematodes; for IC50: in Figure 2
Description: The soil nematodes S. feltiae were freshly purchased for experiment from Sautter and Stepper GmbH (Ammerbuch, Germany) and stored at 4 °C in the dark. The assay was performed according to the protocols described in the literature. Results were expressed as mean ± standard deviation (SD) and their statistical significance values were determined by one-way ANOVA followed by Tukey’s multiple comparison test. To consider data statistically significant, the p value should be ≤ 0.05.

Staphylococcus carnosus = assay: Antibacterial growth assay, S. carnosus; format: cell-based; conditions: highest concentration of 200 µM
Description: as §7, §8

[7] = COLO 320, read-out: Cytotoxic activity, B—Colo 320 IC50
[8] = MTT, MRC-5 normal lung fibroblasts, read-out: Cytotoxic activity, C—MRC-5 IC50
[9] = MTT, 1 × 10^4 cells/well, Colo 320, read-out: Cytotoxic activity, B—Colo 320 IC50

Chain of P-gp (ABCB1) efflux pump in MDR Colo 320 colon adenocarcinoma cells (P08183 whole entry): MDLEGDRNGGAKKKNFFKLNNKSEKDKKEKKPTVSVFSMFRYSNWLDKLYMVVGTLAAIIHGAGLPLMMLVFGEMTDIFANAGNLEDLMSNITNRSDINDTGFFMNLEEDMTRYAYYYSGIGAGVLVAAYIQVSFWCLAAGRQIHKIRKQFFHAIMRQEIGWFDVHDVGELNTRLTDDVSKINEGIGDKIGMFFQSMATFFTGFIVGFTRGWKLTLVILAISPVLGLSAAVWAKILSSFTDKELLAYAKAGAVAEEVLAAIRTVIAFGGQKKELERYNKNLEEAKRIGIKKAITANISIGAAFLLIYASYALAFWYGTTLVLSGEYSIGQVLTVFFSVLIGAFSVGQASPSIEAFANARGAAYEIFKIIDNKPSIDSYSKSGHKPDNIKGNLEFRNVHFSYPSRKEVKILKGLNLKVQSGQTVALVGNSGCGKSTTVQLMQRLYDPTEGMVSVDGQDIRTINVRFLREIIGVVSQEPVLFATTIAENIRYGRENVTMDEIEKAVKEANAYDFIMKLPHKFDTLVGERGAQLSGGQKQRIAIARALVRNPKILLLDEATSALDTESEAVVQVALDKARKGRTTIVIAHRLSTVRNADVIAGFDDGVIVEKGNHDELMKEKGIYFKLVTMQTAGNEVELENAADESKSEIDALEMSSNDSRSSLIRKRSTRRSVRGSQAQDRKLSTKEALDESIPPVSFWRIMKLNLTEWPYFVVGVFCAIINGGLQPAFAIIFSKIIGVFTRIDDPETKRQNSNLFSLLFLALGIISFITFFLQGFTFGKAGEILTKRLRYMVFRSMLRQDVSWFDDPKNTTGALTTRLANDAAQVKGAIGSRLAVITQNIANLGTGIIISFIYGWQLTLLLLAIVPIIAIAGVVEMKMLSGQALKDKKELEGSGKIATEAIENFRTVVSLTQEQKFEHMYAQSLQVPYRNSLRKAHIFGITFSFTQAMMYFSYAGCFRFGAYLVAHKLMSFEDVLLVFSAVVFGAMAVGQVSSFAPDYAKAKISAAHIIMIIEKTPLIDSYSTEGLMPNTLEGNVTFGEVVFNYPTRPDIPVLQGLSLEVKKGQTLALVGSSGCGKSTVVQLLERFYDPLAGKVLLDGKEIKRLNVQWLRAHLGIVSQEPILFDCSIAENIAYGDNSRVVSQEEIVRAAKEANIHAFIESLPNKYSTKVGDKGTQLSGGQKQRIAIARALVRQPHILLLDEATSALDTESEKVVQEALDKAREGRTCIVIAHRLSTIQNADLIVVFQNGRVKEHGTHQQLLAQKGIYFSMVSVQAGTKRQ

| Compound | IC50 [1] [µM] | inhibition at 200 µM (Escherichia coli) [%] | FAR (fluorescence activity ratio) ([2]; 2 μM compound) | FAR Quotient (%) ([2]; 2 μM compound) | FAR (fluorescence activity ratio) ([2]; 20 μM) | FAR Quotient (%) ([2]; 20 μM) | IC50 [3] [µM] | IC50 [4] [µM] | IC50 [5] [µM] | IC50 [6, 7] [µM] | viability at 200 µM (S. feltiae; highest concentration (200 µM)) [%] | IC50 (S. feltiae) [µM] | inhibition at 200 µM (Staphylococcus carnosus) [%] | IC50 [5, 8] [µM] | IC50 [6, 9] [µM] | viability at 200 µM (S. feltiae) [%] | Increase in efflux pump inhibitory activity of naphthyl vs corresponding phenyl derivative [2] [fold] | P-gp inhibition relative to the reference verapamil ([2]; 20 µM) [fold] | IC50 ([5]; MRC-5 embryonal lung fibroblast cells, MTT, MRC-5 normal lung fibroblasts, read-out: Cytotoxic activity, C—MRC-5 IC50) [µM] |
| --- | --- | --- | --- | --- | --- | --- | --- | --- | --- | --- | --- | --- | --- | --- | --- | --- | --- | --- | --- |
| COc1ccc(-c2oc3ccccc3c(=O)c2CC(S(=O)(=O)C(F)(F)F)S(=O)(=O)C(F)(F)F)cc1 [Compound 1] | > 100 | 30 | 1.14 | 34.92 | 1.53 | 46.92 | > 100 | > 100 | > 100 | > 100 | 30 | 23 ± 0.297 | – | – | – | – | – | – | – |
| COc1ccc(-c2sc3ccccc3c(=O)c2CC(S(=O)(=O)C(F)(F)F)S(=O)(=O)C(F)(F)F)cc1 [Compound 2] | > 100 | 42 | 0.97 | 29.67 | 1.89 | 57.83 | > 100 | > 100 | > 100 | > 100 | 24 | 54.98 ± 0.143 | 47 | – | – | – | – | – | – |
| COc1ccc(-c2[se]c3ccccc3c(=O)c2CC(S(=O)(=O)C(F)(F)F)S(=O)(=O)C(F)(F)F)cc1 [Compound 3] | – | 49 | 1.06 | 32.58 | 1.45 | 44.33 | > 100 | > 100 | – | – | – | 41.94 ± 0.286 | 57 | > 100 | > 100 | 29 | – | – | – |
| COc1ccc2cc(-c3oc4ccccc4c(=O)c3CC(S(=O)(=O)C(F)(F)F)S(=O)(=O)C(F)(F)F)ccc2c1 [Compound 4] | > 100 | 45 | 1.48 | 45.42 | 4.81 | 147.50 | > 100 | > 100 | > 100 | > 100 | – | – | 37 | – | – | – | 3.14 | – | – |
| COc1ccc2cc(-c3sc4ccccc4c(=O)c3CC(S(=O)(=O)C(F)(F)F)S(=O)(=O)C(F)(F)F)ccc2c1 [Compound 5] | > 100 | 39 | 1.95 | 59.92 | 8.61 | 264.17 | > 100 | > 100 | > 100 | > 100 | – | – | 47 | – | – | – | 4.57 | 2.64 | – |
| COc1ccc2cc(-c3[se]c4ccccc4c(=O)c3CC(S(=O)(=O)C(F)(F)F)S(=O)(=O)C(F)(F)F)ccc2c1 [Compound 6, bis(triflyl) selenoflavone] | – | – | 1.14 | 34.92 | 4.67 | 143.33 | > 100 | > 100 | – | – | – | 80.62 ± 0.142 | – | > 100 | > 100 | 26 | 3.23 | – | – |
| COc1cccc2c1C(=O)c1c(O)c3c(c(O)c1C2=O)C[C@@](O)(C(=O)CO)C[C@@H]3O[C@H]1C[C@H](N)[C@H](O)[C@H](C)O1 [DOXO, Doxorubicin, reference compound] | 1.56 | – | – | – | – | – | 0.24 | 0.14 | – | – | – | – | – | – | 6.45 | – | – | – | > 10 |
